Test results as given in patent US8895522B2, “Composition and method for the prevention, treatment and/or alleviation of an inflammatory disease” (Index Pharmaceuticals AB, priority 2005, dated 2014).
“Also recorded” adds a separate entry of the source.

Tests used:
[1] = tested on: human PBMC; assay: Induction of IL-10 from healthy human PBMC (ELISpot); assay type: cell-based; settings: PBMC from 5 healthy individuals, 48 hours; for induction of IL-10 producing cells: FIG. 11
Protocol: (§1) Whole blood was obtained from healthy blood donors. PBMCs were prepared from 30 ml whole blood according to the following protocol:
(§2) 30 ml blood was transferred directly into heparinized tubes. All blood was transferred into one 50 ml Falcon tube and PBS added up to 50 ml. 15 ml Ficoll (17-1440-03, obtained from Amersham Bioscience AB, Uppsala) was then added into two falcon tubes (50 ml). The PBS-treated blood was then carefully added on the top of to Ficoll, 25 ml to each tube. The tubes were then centrifuged 25 min at 1700 RPM at RT (20° C.).
(§3) RPMIc medium was prepared under sterile conditions, using a 0.22 uM filter. (RPMIc denotes a RPMI 1640 culture medium (R0883, Sigma) supplemented with 5% heat-inactivated (56° C.,1 h) FCS 1.5 mM L-glutamine (G7513, Sigma), 100 U/ml penicillin and 100 ug/ml streptomycin, PEST (P0781, Sigma), hepes (H0887, Sigma), and gentamycin (G1272, Sigma)).
(§4) The interphase was carefully pipetted from the two tubes into 2x 50mi Falcon tubes. PBS was added up to 50 ml in each tube, and the tubes centrifuged for 10 min at 1700 RPM (4° C.).
(§5) The supernatant was discarded, and PBS added to 30 ml, whereupon the tubes were centrifuged at 10 min at 1500 RPM (4° C.). Again, the supernatant was discarded, 10 ml PBS added, and the pellets from the two falcon tubes pooled.
(§6) The cells were counted and left in PBS, then centrifuged at 1200 RPM, 10 min. Medium was then added to obtain the concentration of interest, and the cells counted (16 squares)×3. The mean value was calculated and multiplied with the dilution factor×10^4=cells/ml. Diluting the cells to 10 million/ml will result in 500.000 cells/50 ul medium, 6 million/ml will be 300.000/50 ul medium.
(§7) Elispot assays where performed according to the manufactures recommended guidelines (MabTech) and the plates were analyzed using an AID ELISpot reader system (Autoimmun Diagnostika GmbH, Strassberg, Germany).
Approximately 500,000 PBMC cells per well, derived from blood from healthy human donors, were incubated for 48 hours in the presence of the different oligonucleotides. Specifically, SEQ.ID.NO 1, SEQ.ID.NO 2, SEQ.ID.NO 6 and SEQ.ID.NO 8. Following incubation, the wells were developed according to the kit supplier's recommendations and the average number of positive cells producing IL-10 per well were counted using an AID ELISpot reader system, (Autoimmun Diagnostika GmbH, Strassberg, Germany).

[2] = tested on: human PBMC; assay: Induction of IFN-alpha from healthy human PBMC (ELISpot); assay type: cell-based; settings: PBMC from 10 healthy individuals, 48 hours; for induction of IFN-alpha producing cells: FIG. 13
Protocol: as §1, §2, §3, §4, §5, §6, §7
For this assay again 500,000 PBMC cells per well, derived from healthy human blood were incubated for 48 hours in the presence of the different oligonucleotides. Specifically, SEQ.ID.NO 1, SEQ.ID.NO 2, and SEQ.ID.NO 8. Following incubation, the wells were developed according to the kit suppliers recommendations and the average number of positive cells producing IFN-alpha per well were determined using an AID ELISpot reader.

[3] = tested on: LPS induced airway inflammation in mice; assay: First animal study: LPS-induced airway inflammation in mice, analysis of leukocytes in BALF; assay type: in vivo, C57BL/6 mice
Protocol: C57BL/6 mice were purchased from Bomholtgaard, Ry, Denmark. Animals were fed with standard chow and water ad libitum and allowed to acclimatize for at least 7 days in an accredited animal facility before use. In all experiments female mice of ages between 9-11 weeks were used. All experiments were approved by the local ethical committee for animal experiments in Umea, Sweden.
Bacterial endotoxin, LPS (Escherichia coli 0128:B12, Sigma, St. Louis, Mo.) was administered to anaesthetised mice (enflurane) by tracheal instillation in a total volume of 50 μl in a concentration of 5 μg. Control mice were given solvent alone (endotoxin-free distilled water). Through previous experiments the optimum concentration of LPS was determined to be 5 μg.
The mice were sacrificed by cervical dislocation 20 h after LPS instillation and their tracheae was cannulated with polyethylene tubing. Bronchoalveolar 20 lavage (BAL) was performed using 1-ml aliquots of ice-cold Hanks balanced salt solution to a recovered volume of 4 ml. Total number of leucocytes in bronchoalveolar lavage fluid (BALF) was counted using a Bürker chamber and trypan blue solution. Differential cell counts were determined on duplicate cytocentrifuged preparations stained with May-Grünewald Gemisa. Three 25 hundred cells were counted from each slide and the percentage of neutrophils determined.
Mice were treated with an experimental oligonucleotide (SEQ.ID.NO 3, in concentrations of 25 μg, 100 μg or 150 μg. The oligonucleotide was administrated by tracheal instillation to anaesthetised mice in a total volume of 50 μl 18 h prior to instillation of 5 μg LPS. Control mice received 50 μl endotoxin-free distilled water.
To compare the effect of the oligonucleotide to conventional treatment with anti-inflammatory corticosteroids, one group of mice received dexamethasone (Sigma St Louis, Mo.). Dexamethasone (10 mg/kg body weight) dissolved in PBS was 6(12) injected intraperitoneally (i.p) into mice 1 h prior LPS exposure. […]
The results are expressed as mean+standard error of the mean (SEM). […]

[4] = tested on: LPS induced airway inflammation in mice; assay: Second LPS induced asthma study in mice, BALF cell counts; assay type: in vivo; settings: single dose 150 ug tracheal instillation 18 h prior to LPS; BALF 20 h; p=0.005
Protocol: As with example 2, aim of the study was to examine the pharmaceutical effects of SEQ. ID. NO. 3 using airway inflammation as disease endpoint, and to compare the efficacy with that of corticosteroids. This study included larger numbers of animals per group to increases statistical significance. The induction of LPS induced asthma and the protocol of analyses was conducted as described in example 2.
Briefly, mice were treated with an SEQ.ID.NO 3 (150 μg/animal) administered by tracheal instillation 18 h prior to challenge with 5 μg LPS. One group of mice represented healthy untreated individuals. Control mice were given solvent only (H2O) and LPS. One group received dexamethasone (5 mg/kg) one hour before LPS instillation and one group were given a combination treatment. Analysis of BALF was performed 20 hours after the last treatment. Total number of cells in BALF and number of neutrophils is shown. Data is expressed as mean±SD. ***=p<0.001 and **=p<0.01, in treated groups vs the control group (one-way ANOVA and Bonferroni post hoc test). Calculations were performed by SPSS software (12.0). n=6 in all groups.

[5] = tested on: LPS-induced airway inflammation in mice; assay: Third LPS induced asthma study in mice, BALF cell counts; assay type: in vivo; settings: for influx of leukocytes in BALF compared to the control group / influx of neutrophils in BALF compared to the control group: 150 μg/animal, significance if the non-responding control individual is excluded; for influx of leukocytes in BALF compared to the control group: FIG. 7; for influx of neutrophils in BALF compared to the control group: FIG. 8; for number of infiltrating inflammatory cells in the BAL fluid: oligonucleotides 150 μg/animal tracheal 18 h prior to LPS, dexamethasone 5 mg/kg i.p. 1 h before, FIG. 6
Protocol: As with examples 1 and 2, aim of the study was to examine the pharmaceutical effects of SEQ. ID. NO. 3 using airway inflammation as disease endpoint, and to compare the efficacy with that of corticosteroids. In addition, a number of control oligonucleotides were included being SEQ.ID.NO 4, and SEQ.ID.NO 7. The induction of LPS induced asthma and the protocol of analyses was conducted as described in Example 2.
Briefly, LPS-induced airway inflammation in mice was treated with SEQ.ID.NOs 3, 4 and 7 (150 μg/animal) administered by tracheal instillation 18 h prior to challenge with 5 μg LPS. The untreated group represents healthy individuals and mice in the control group were given solvent only (H2O+LPS). The control treatment of dexamethasone (5 mg/kg, i.p.) was given one hour before LPS instillation. Analysis of BAL fluid was performed 20 hours after LPS instillation. The total number of leukocytes and neutrophils in BAL fluid is shown. Data expressed as mean±SD (n=6). ***p<0.001, *p<0.05, using One-way ANOVA with Dunnett's post hoc corrections versus control group.

[6] = tested on: murine spleen cells; assay: Induction of IL-10 from murine spleen cells (ELISpot); assay type: cell-based; settings: mouse splenocytes, 48 hours incubation; for induction of IL-10 (positive spots per well): FIG. 9
Protocol: (§8) The spleen was excised from a test animal. A single cell suspension was prepared using a nylon cell strainer (100 μm). The cells were washed once in complete RPMI medium at 1200 rpm for 7-10 minutes, whereupon the supernatant was poured off and the cells resuspended. 1 ml of “red blood cell lysing buffer” was added, and the mixture incubated for 1-2 minutes at RT. 5 ml of complete RPMI was added and the mixture centrifuged as above (C2).
(§9) The supernatant was poured off, the pellet resuspended and another 5 ml of complete RPML added. The cells were counted by dilution in trypan blue, so that between 50-100 cells were counted in the area.
(§10) Approximately 500,000 mouse splenocyte cells per well were incubated for 48 hours in the presence of the different oligonucleotides at the concentrations indicated. Specifically, SEQ.ID.NO 3, SEQ.ID.NO 4, and SEQ.ID.NO 7. Following incubation the wells were developed according to the kit suppliers recommendations and the average number of positive spots per well were determined using a AID ELISpot reader system, (Strassberg Germany).
as §7

[7] = tested on: murine spleen cells; assay: Induction of IFN-gamma from murine spleen cells (ELISpot); assay type: cell-based; settings: mouse splenocytes, 48 hours incubation, FIG. 10
Protocol: as §8, §9, §10
Regarding the production of IFN-gamma, mouse splenocytes were treated as described above, with the intention to monitor levels of IFN-gamma by Elispot asssy. Identical conditions and concentrations of oligonucleotides where used.
as §7

[8] = tested on: human PBMC; assay: Induction of IFN-gamma from healthy human PBMC (ELISpot); assay type: cell-based; settings: PBMC from 7 healthy individuals, 48 hours, FIG. 12
Protocol: as §1, §2
as §3, with “Sigma)). […]” for “Sigma)).”
The cells were counted and left in PBS, then centrifuged at 1200 RPM, 10 min. Medium was then added to obtain the concentration of interest, and the cells counted (16 squares)×3. The mean value was calculated and multiplied with the dilution factor×10^4=cells/ml. […]
Elispot assays where performed according to the manufactures recommended guidelines (MabTech) and the plates were analyzed using an AID ELISpot reader system (Autoimmun Diagnostika GmbH, Strassberg, Germany). […]

Row | Substance | induction of IL-10 producing cells [1] | induction of IFN-alpha producing cells [2] | influx of leukocytes in BALF compared to the control group [5] | influx of neutrophils in BALF compared to the control group [5] | number of infiltrating inflammatory cells in the BAL fluid [5] | concentration at which IL-10 producing cells are first induced [6] [µM] | induction of IL-10 (positive spots per well) [6] | induction of IFN-gamma compared to medium alone [7] | further results
1 | 5′-T*C*G*T*C*G*T*T*T*T*G*T*C*G*T*T*T*T*G*T*C*G*T*T-3′ [SEQ.ID.NO 8] | strong potential to induce IL-10 | strong potential to induce IFN-alpha |  |  |  |  |  |  | concentration at which induction of IFN-alpha starts / is apparent [2]: 0.1 µM
2 | 5′-G*A*A*ACAGATCGTCCAT*G*G*T-3′ (antisense GAAACAGATCGTCCATGGT; listed as DNA, chemistry not fully specified) [SEQ.ID.NO 3, (Mu p65)AS, CpG-containing ODN] |  |  | significantly reduced inflammatory response | significantly reduced inflammatory response | reduced numbers of infiltrating inflammatory cells | 5 | induce significant levels of IL-10 | capable of inducing significant levels of IFN-gamma | reduction in the number of recovered neutrophils in BAL ([3]; 150 μg by tracheal instillation 18 h prior to LPS, BALF 20 h after LPS): more than 50%; anti-inflammatory effect compared with dexamethasone ([3]; 150 μg intratracheal vs dexamethasone 10 mg/kg i.p. 1 h prior to LPS): at least as powerful as high-dose treatment with dexamethasone; neutrophils in BALF / neutrophilic response in the airways ([3]; 25, 100 or 150 μg by tracheal instillation 18 h prior to 5 μg LPS, BALF 20 h after LPS): dose-dependent reduction; also recorded: significantly reduced neutrophilic response; reduction in BAL fluid cell number verses control [4]: approximately 50%
3 | 5′-G*A*A*ACAGATGCTCCAT*G*G*T-3′ (antisense GAAACAGATGCTCCATGGT; listed as DNA, chemistry not fully specified) [SEQ.ID.NO 4, (Mu p65 rev)AS] |  |  | no effect | no effect | little effect |  | no induction | no such inducing potential | 
4 | 5′-G*G*A*ACAGTTGCTCCAT*G*G*C-3′ (antisense GGAACAGTTGCTCCATGGC; listed as DNA, chemistry not fully specified) [SEQ.ID.NO 2, (Hu p65 rev)AS] | failed to induce IL-10 | fails to induce any measurable levels of IFN-alpha |  |  |  |  |  |  | concentration from which IL-10 producing cells are induced [1]: around 100 uM; induction of IFN-gamma producing cells versus background [8]: background level is not exceeded
5 | 5′-T*C*C*A*T*G*A*C*G*T*T*C*C*T*G*A*C*G*T*T-3′ [SEQ.ID.NO 7] |  |  |  |  | more dramatic level of inhibition being as effective as dexamethasone | 0.1 | induce significant levels of IL-10 | capable of inducing significant levels of IFN-gamma | 
6 | 5′-G*G*T GCA TCG ATG CAG*G*G*G*G*G-3′ (GGTGCATCGATGCAGGGGGG; listed as DNA, chemistry not fully specified) [SEQ.ID.NO 6] | strong potential to induce IL-10 |  |  |  |  |  |  |  | 
